# Source: ChEMBL document CHEMBL5126576, “From tryptophan to novel mitochondria-disruptive agent, synthesis and biological evaluation of 1,2,3,6-tetrasubstituted carbazoles” (Eur J Med Chem, 2022)
# Active and inactive are the calls of the source. The calls are words filed in the database; no cut-off is given here.
# What was measured:
# MCF7 = assay: Antiproliferative activity against human MCF7 cells after 72 hrs by MTT assay; type: functional, cell-based; conditions: MCF7, 72 h
# A549 [1] = assay: Antiproliferative activity against human A549 cells after 72 hrs by MTT assay; type: functional, cell-based; conditions: A549, 72 h
# U2OS [2] = assay: Antiproliferative activity against human U2OS cells after 72 hrs by MTT assay; type: functional, cell-based
# HCT-116 [3] = assay: Antiproliferative activity against human HCT-116 cells after 72 hrs by MTT assay; type: functional, cell-based; conditions: HCT-116, 72 h
# HepG2 = assay: Antiproliferative activity against human HepG2 cells after 72 hrs by MTT assay; type: functional, cell-based; conditions: HepG2, 72 h
# [4] = Antiproliferative activity against human HEK293 cells after 72 hrs by MTT assay; type: toxicity, cell-based
# U2OS [5] = assay: Induction of mitochondrial morphological changes in human U2OS cells assessed as short circular-shaped mitochondria measured after 6 hrs by confocal microscopic analysis; type: functional, cell-based
# U2OS [6] = assay: Inhibition of colony formation in human U2OS cells at 0.5 to 10 uM measured after 24 hrs crystal violet staining based assay; type: functional, cell-based; conditions: dose 0.5-10 µM
# HCT-116 [7] = assay: Induction of mitochondrial morphological changes in human HCT-116 cells assessed as short circular-shaped mitochondria measured after 6 hrs by confocal microscopic analysis; type: functional, cell-based
# U2OS [8] = assay: Induction of reactive oxygen species generation in human U2OS cells by DCFH-DA staining based assay; type: functional, cell-based; conditions: time 1-24 hrs
# U2OS [9] = assay: Inhibition of cell migration in human U2OS cells at 5 to 10 uM measured after 24 to 48 hrs by wound healing assay; type: functional, cell-based; conditions: dose 5-10 µM, time 24-48 hrs
# HCT-116 [10] = assay: Induction of mitochondrial membrane potential loss in human HCT116 cells assessed as green fluorescence intensity by JC1 staining-based flow cytometry analysis; type: functional, cell-based
# [11] = Drug uptake in human HCT-116 cells assessed as accumulation in lipid droplets at IC50 measured after 2 hr by immunofluorescence analysis; type: ADME, cell-based; conditions: hct-116, 2 h
# HCT-116 [12] = assay: Induction of reactive oxygen species generation in human HCT116 cells at 15 uM after 24 hrs by DCFH-DA staining based assay relative to control; type: functional
# HCT-116 [13] = assay: Induction of mitochondrial morphological changes in human HCT-116 cells assessed as reduction in mitochondrial length measured after 6 hrs by confocal microscopic analysis relative to control; type: functional; parameters: scale not given: the % may be the effect or the level left
# HCT-116 [14] = assay: Induction of cell senescence in human HCT-116 cells assessed by increase SA-beta-Gal activity measured after 24 to 48 hrs by microscopic analysis; type: functional, cell-based; conditions: time 24-48 hrs
# HCT-116 [15] = assay: Induction of apoptosis in human HCT-116 cells assessed as early and late apoptotic cells at IC50 measured after 24 hrs by Annexin-V-FITC/propidium iodide staining based flow cytometry; type: functional, cell-based
# HCT-116 [16] = assay: Inhibition of cell migration in human HCT-116 cells at 5 to 10 uM measured after 24 hrs by wound healing assay; type: functional, cell-based; conditions: dose 5-10 µM
# HCT-116 [17] = assay: Induction of DNA damage in human HCT-116 cells assessed as increase in H2AX phosphorylation measured after 24 to 72 hrs by immunofluorescence analysis; type: functional, cell-based; conditions: time 24-72 hrs
# HCT-116 [18] = assay: Induction of apoptosis in human HCT-116 cells assessed as increase in caspase 3/7 activity at IC50 measured after 6 to 48 hrs by […] based flow cytometry; type: functional, cell-based; conditions: time 6-48 hrs
# HCT-116 [19] = assay: Induction of apoptosis in human HCT-116 cells assessed as necrotic cells at IC50 measured after 48 hrs by Annexin-V-FITC/propidium iodide staining based flow cytometry relative to control; type: functional
# U2OS [20] = assay: Induction of mitochondrial membrane potential loss in human U2OS cells assessed as green fluorescence intensity by JC1 staining-based flow cytometry analysis; type: functional, cell-based
# HCT-116 [21] = assay: Inhibition of cell migration in human HCT-116 cells at 10 uM measured after 60 hrs by wound healing assay relative to control; type: functional
# HCT-116 [22] = assay: Inhibition of colony formation in human HCT-116 cells at 0.5 to 10 uM measured after 24 hrs crystal violet staining based assay; type: functional, cell-based; conditions: dose 0.5-10 µM
# HCT-116 [23] = assay: Induction of cell cycle arrest in human HCT-116 cells assessed as slight increase in G0/G1 phase at IC50 measured after 24 hrs by flow cytometry; type: functional, cell-based
# A549 [24] = assay: Induction of cell cycle arrest in human A549 cells assessed as slight increase in G0/G1 phase at IC50 measured after 24 hrs by flow cytometry; type: functional, cell-based
# HCT-116 [25] = assay: Induction of cell cycle arrest in human HCT-116 cells assessed as increase in number of cells at S phase at IC50 measured after 72 hrs by flow cytometry; type: functional, cell-based
# U2OS [26] = assay: Induction of cell cycle arrest in human U2OS cells assessed as slight increase in G0/G1 phase at IC50 measured after 24 hrs by flow cytometry; type: functional, cell-based
# U2OS [27] = assay: Induction of DNA damage in human U2OS cells assessed as increase in H2AX phosphorylation measured after 48 hrs by immunofluorescence analysis relative to control; type: functional
# HCT-116 [28] = assay: Induction of cell cycle arrest in human HCT-116 cells assessed as increase in G2/M phase at IC50 measured after 24 hrs by flow cytometry; type: functional, cell-based
# HCT-116 [29] = assay: Induction of apoptosis in human HCT-116 cells assessed as early apoptotic cells at IC50 measured after 6 hrs by Annexin-V-FITC/propidium iodide staining based flow cytometry; type: functional
# A549 [30] = assay: Induction of cell cycle arrest in human A549 cells assessed as increase in number of cells at S phase at IC50 measured after 72 hrs by flow cytometry; type: functional, cell-based
# U2OS [31] = assay: Induction of DNA damage in human U2OS cells assessed as increase in H2AX phosphorylation measured after 72 hrs by immunofluorescence analysis relative to control; type: functional
# A549 [32] = assay: Induction of cell cycle arrest in human A549 cells assessed as moderate increase in S phase at IC50 measured after 24 hrs by flow cytometry; type: functional, cell-based
# HCT-116 [33] = assay: Induction of cell cycle arrest in human HCT-116 cells assessed as moderate increase in S phase at IC50 measured after 24 hrs by flow cytometry; type: functional, cell-based
# U2OS [34] = assay: Induction of cell cycle arrest in human U2OS cells assessed as moderate increase in S phase at IC50 measured after 24 hrs by flow cytometry; type: functional, cell-based
# A549 [35] = assay: Induction of cell cycle arrest in human A549 cells assessed as increase in G2/M phase at IC50 measured after 24 hrs by flow cytometry; type: functional, cell-based
# A549 [36] = assay: Induction of cell cycle arrest in human A549 cells assessed as increase in number of cells at G2/M phase at IC50 measured after 24 to 48 hrs by flow cytometry; type: functional, cell-based; conditions: time 24-48 hrs
# U2OS [37] = assay: Induction of cell cycle arrest in human U2OS cells assessed as increase in G2/M phase at IC50 measured after 24 hrs by flow cytometry; type: functional, cell-based
smiles,measurement,setting,value
CCOC(=O)CC(=O)C(Cc1c[nH]c2ccccc12)NC(=O)OC(C)(C)C (configuration not stated),IC50,MCF7,> 50 µM
same,IC50,A549 [1],> 50 µM
same,IC50,U2OS [2],> 50 µM
same,IC50,HCT-116 [3],> 50 µM
same,IC50,HepG2,> 50 µM
same,IC50 at 72 h,[4],> 50 µM
CCOC(=O)c1c(O)c(NC(C)=O)cc2c1[nH]c1ccccc12,IC50,MCF7,> 50 µM
same,IC50,A549 [1],> 50 µM
same,IC50,U2OS [2],> 50 µM
same,IC50,HCT-116 [3],> 50 µM
same,IC50,HepG2,> 50 µM
same,IC50 at 72 h,[4],> 50 µM
CCOC(=O)c1c(O)c(NC(=O)OC(C)(C)C)cc2c1[nH]c1ccccc12,Activity,U2OS [5],Active
same,inhibition,U2OS [6],Active
same,Activity,HCT-116 [7],Active
same,Activity,U2OS [8],Active
same,inhibition,U2OS [9],Active
same,Activity,HCT-116 [10],Active
same,IC50,MCF7,> 50 µM
same,Drug uptake,[11],Active
same,IC50,A549 [1],> 50 µM
same,Activity,HCT-116 [12],19.6%
same,Activity,HCT-116 [13],50.34%
same,Activity,HCT-116 [14],Active
same,Activity,HCT-116 [15],Active
same,inhibition,HCT-116 [16],Active
same,Activity,HCT-116 [17],Active
same,IC50,U2OS [2],15.7 µM
same,Activity,HCT-116 [18],Active
same,IC50,HCT-116 [3],10.7 µM
same,Activity,HCT-116 [19],1.16%
same,IC50,HepG2,> 50 µM
same,Activity,U2OS [20],Active
same,inhibition at 10 µM,HCT-116 [21],57%
same,IC50 at 72 h,[4],> 50 µM
same,inhibition,HCT-116 [22],Active
CCOC(=O)c1c(O)c(NC(=O)c2ccc(CC)o2)cc2c1[nH]c1ccccc12,IC50,MCF7,> 50 µM
same,IC50,A549 [1],> 50 µM
same,IC50,U2OS [2],> 50 µM
same,IC50,HCT-116 [3],> 50 µM
same,IC50,HepG2,> 50 µM
same,IC50 at 72 h,[4],> 50 µM
CCOC(=O)c1c(OC(=O)c2ccc(C)o2)c(NC(=O)c2ccc(C)o2)cc2c1[nH]c1ccc(NC(=O)c3ccc(C)o3)cc12,IC50,MCF7,> 50 µM
same,IC50,A549 [1],> 50 µM
same,IC50,U2OS [2],> 50 µM
same,IC50,HCT-116 [3],> 50 µM
same,IC50,HepG2,> 50 µM
same,IC50 at 72 h,[4],> 50 µM
CC(C)(C)OC(=O)Nc1cc2c([nH]c3ccccc32)c(C(=O)O)c1O,Activity,U2OS [5],Active
same,inhibition,U2OS [6],Active
same,Activity,HCT-116 [23],Active
same,Activity,HCT-116 [7],Active
same,Activity,U2OS [8],Active
same,inhibition,U2OS [9],Active
same,Activity,A549 [24],Active
same,Activity,HCT-116 [10],Active
same,Activity,HCT-116 [25],Active
same,IC50,MCF7,> 50 µM
same,Activity,U2OS [26],Active
same,Activity,U2OS [27],51%
same,Drug uptake,[11],Active
same,Activity,HCT-116 [28],Active
same,Activity,HCT-116 [29],11.23%
same,IC50,A549 [1],11.5 µM
same,Activity,HCT-116 [12],64.2%
same,Activity,HCT-116 [13],36.71%
same,Activity,HCT-116 [14],Active
same,Activity,A549 [30],Active
same,Activity,HCT-116 [15],Active
same,Activity,U2OS [31],68.2%
same,Activity,A549 [32],Active
same,Activity,HCT-116 [33],Active
same,inhibition,HCT-116 [16],Active
same,Activity,HCT-116 [17],Active
same,IC50,U2OS [2],2.34 µM
same,Activity,HCT-116 [18],Active
same,IC50,HCT-116 [3],3.75 µM
same,Activity,U2OS [34],Active
same,Activity,A549 [35],Active
same,Activity,HCT-116 [19],2.38%
same,IC50,HepG2,> 50 µM
same,Activity,U2OS [20],Active
same,inhibition at 10 µM,HCT-116 [21],64.4%
same,Activity,A549 [36],Active
same,IC50 at 72 h,[4],> 50 µM
same,Activity,U2OS [37],Active
same,inhibition,HCT-116 [22],Active
CCOC(=O)c1c(O)c(NC(=O)c2ccc(C)o2)cc2c1[nH]c1ccccc12,IC50,MCF7,> 50 µM
same,IC50,A549 [1],> 50 µM
same,IC50,U2OS [2],> 50 µM
same,IC50,HCT-116 [3],> 50 µM
same,IC50,HepG2,> 50 µM
same,IC50 at 72 h,[4],> 50 µM
O=c1[nH]cc(F)c(=O)[nH]1 [FLUOROURACIL],IC50,MCF7,8.41 µM
same,IC50,A549 [1],8.12 µM
same,IC50,U2OS [2],13 µM
same,IC50,HCT-116 [3],5.78 µM
same,IC50,HepG2,19 µM
same,IC50 at 72 h,[4],41 µM
CCOC(=O)c1c(O)c(NC(=O)OC(C)(C)C)cc2c1[nH]c1ccc(OC(C)=O)cc12,IC50,MCF7,> 50 µM
same,IC50,A549 [1],> 50 µM
same,IC50,U2OS [2],37.5 µM
same,IC50,HCT-116 [3],46.4 µM
same,IC50,HepG2,> 50 µM
same,IC50 at 72 h,[4],> 50 µM
CCOC(=O)c1c(O)c(NC(=O)OC(C)(C)C)cc2c1[nH]c1ccc(NC(=O)OC(C)(C)C)cc12,IC50,MCF7,> 50 µM
same,IC50,A549 [1],> 50 µM
same,IC50,U2OS [2],> 50 µM
same,IC50,HCT-116 [3],> 50 µM
same,IC50,HepG2,> 50 µM
same,IC50 at 72 h,[4],> 50 µM
CCOC(=O)Nc1cc2c([nH]c3ccccc32)c(C(=O)OCC)c1O,IC50,MCF7,> 50 µM
same,IC50,A549 [1],16.9 µM
same,IC50,U2OS [2],> 50 µM
same,IC50,HCT-116 [3],> 50 µM
same,IC50,HepG2,> 50 µM
same,IC50 at 72 h,[4],> 50 µM
